These results are taken from PubChem BioAssay (NCI).

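Following 48 hours of exposure in 96-well plates, responses at five concentrations were used to interpolate endpoints linearly. GI50 marks 50% less growth. TGI marks complete inhibition of growth.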

Among the test systems are MDA-MB-231 breast; SNB-75 CNS; UACC-257 melanoma; UACC-62 melanoma; CAKI-1 renal; HCT-116 colon; KM12 colon; OVCAR-4 ovarian.
Common to all, as to assay: NCI tumour cell line growth inhibition, 48 h

In the case of `COC(=O)c1ccc(NC(N)=NCC(C)(C)COc2ccc(C(F)(F)F)cc2)nc1`, the GI50 was 1.7 µM with MDA-MB-231 breast, 1.57 µM with SNB-75 CNS, 1.69 µM in the assay on UACC-257 melanoma and 1.66 µM in the assay on UACC-62 melanoma. The TGI in the assay with MDA-MB-231 breast was 3.39 µM; in the assay on SNB-75 CNS, 3.27 µM; in the assay on UACC-257 melanoma, 3.27 µM; in the assay on UACC-62 melanoma, 3.1 µM.
Consider `C=C(CN(C)Cc1ccccc1)c1ccc(C(=O)Nc2ccccc2N)cc1`, for which the GI50 with CAKI-1 renal is 3.43 µM; in the assay with HCT-116 colon, 8.6 µM; in the assay on KM12 colon, 1.23 µM; with MDA-MB-231 breast, 0.739 µM; in the assay with OVCAR-4 ovarian it was 8.28 µM; in the assay with UACC-62 melanoma, 2.16 µM. Moreover, the TGI in the assay with CAKI-1 renal was 14.8 µM; in the assay with HCT-116 colon it was 21.9 µM; in the assay with KM12 colon it was 7.26 µM; in the assay with MDA-MB-231 breast it was 5.78 µM; with OVCAR-4 ovarian it was more than 50 µM; in the assay on UACC-62 melanoma, 18.4 µM.
For `C[n+]1cc2cc3c(cc2c2ccccc21)OCO3`, the GI50 in the assay on CAKI-1 renal was 46.4 µM; in the assay on HCT-116 colon, 3.58 µM; with KM12 colon, 1.22 µM; in the assay on MDA-MB-231 breast it was 10.8 µM; in the assay with OVCAR-4 ovarian, 3.78 µM; in the assay with SNB-75 CNS, 2.22 µM. Further, the GI50 with UACC-257 melanoma is 3.85 µM; with UACC-62 melanoma, 3.97 µM. For the same compound, the TGI in the assay with CAKI-1 renal is more than 100 µM; with HCT-116 colon, more than 100 µM; with KM12 colon, 10.1 µM; with MDA-MB-231 breast, 54 µM; in the assay with OVCAR-4 ovarian, 36 µM; in the assay with SNB-75 CNS it was 9.6 µM. In addition, the TGI in the assay on UACC-257 melanoma is 14 µM; in the assay with UACC-62 melanoma, 16.4 µM.
For `C/C(=C1/N=C(c2ccccc2)OC1=O)c1ccccc1`, the TGI with CAKI-1 renal, in the assay on HCT-116 colon, in the assay with KM12 colon, in the assay with MDA-MB-231 breast, in the assay with OVCAR-4 ovarian and in the assay with SNB-75 CNS was more than 100 µM in each case. Moreover, the TGI in the assay with UACC-257 melanoma and in the assay with UACC-62 melanoma was more than 100 µM throughout.
For the compound `O=C(NCCNC(=O)c1ccc(F)cc1)Nc1ccc(-n2cc(-c3ccncc3)c(-c3ccc(Cl)c(O)c3)n2)cc1`, the GI50 in the assay with HCT-116 colon is 0.338 µM; in the assay on KM12 colon, 0.433 µM; with MDA-MB-231 breast, 0.438 µM; in the assay on OVCAR-4 ovarian it was 0.585 µM; in the assay with SNB-75 CNS, 3.05 µM; in the assay on UACC-257 melanoma, 1.37 µM. Besides, the GI50 with UACC-62 melanoma was 0.555 µM. Also, the TGI in the assay on HCT-116 colon is 1.56 µM; with KM12 colon, 2.28 µM; in the assay on MDA-MB-231 breast, 2.26 µM; with OVCAR-4 ovarian it was more than 100 µM; in the assay with SNB-75 CNS, more than 100 µM; in the assay on UACC-257 melanoma it was 5.89 µM. Also, in the assay on UACC-62 melanoma, the TGI is 2.32 µM.
With `Cc1cc(S(=O)(=O)Nc2nc3ccccc3[nH]2)c(SCc2ccccc2)cc1Cl`, the GI50 is 2.1 µM with CAKI-1 renal; 51.6 µM in the assay with HCT-116 colon; 40.4 µM in the assay on KM12 colon; 18.2 µM with MDA-MB-231 breast; more than 100 µM in the assay on UACC-257 melanoma; more than 100 µM in the assay on UACC-62 melanoma. The TGI in the assay on CAKI-1 renal is 6.1 µM; in the assay with HCT-116 colon, more than 100 µM; with KM12 colon, more than 100 µM; in the assay on MDA-MB-231 breast, 51.5 µM; in the assay with UACC-257 melanoma, more than 100 µM; with UACC-62 melanoma, more than 100 µM.
As to `COc1ccccc1Nc1nc2ccccc2c2occc12`, the GI50 in the assay on CAKI-1 renal is 18 µM; with HCT-116 colon it was 20.8 µM; in the assay with KM12 colon, 16.1 µM; in the assay on MDA-MB-231 breast it was 10.9 µM; in the assay on OVCAR-4 ovarian, 4.13 µM; in the assay with UACC-257 melanoma it was 14.3 µM. For the same compound, the GI50 in the assay with UACC-62 melanoma was 10.1 µM. In addition, the TGI is more than 50 µM with CAKI-1 renal; more than 50 µM in the assay on HCT-116 colon; more than 50 µM in the assay with KM12 colon; 29.1 µM with MDA-MB-231 breast; 19.3 µM in the assay with OVCAR-4 ovarian; 35.7 µM with UACC-257 melanoma. Also, the TGI in the assay with UACC-62 melanoma came out at 26.4 µM.
On to `Cc1ccc(S(=O)(=O)N[C@@H](Cc2ccccc2)C(=O)CCl)cc1`, for which the GI50 is 16.7 µM in the assay with CAKI-1 renal; 12.9 µM in the assay on HCT-116 colon; 18.2 µM with KM12 colon; 16.6 µM with OVCAR-4 ovarian; 16.7 µM in the assay with SNB-75 CNS; 43.2 µM in the assay on UACC-257 melanoma. The TGI in the assay on CAKI-1 renal is 34.7 µM; in the assay on HCT-116 colon, more than 100 µM; in the assay with KM12 colon, 38 µM; in the assay on OVCAR-4 ovarian it was 42.6 µM; in the assay with SNB-75 CNS it was 35.8 µM; in the assay on UACC-257 melanoma, more than 100 µM.
`COC(=O)[C@@H]1[C@H](O)[C@H](C)[C@H](O)[C@H](C)/C=C\C=C(C)C(=O)Nc2c(C)c(OC(C)=O)c3c(c2O)C(=O)C(C)=C2OCOC(=C23)C(C)=C[C@@](C)(O)[C@H](O)[C@@H](C)[C@H]1OC(C)=O`: the TGI with HCT-116 colon is 48.6 µM; in the assay on KM12 colon it was more than 100 µM; in the assay on MDA-MB-231 breast, more than 100 µM; with OVCAR-4 ovarian, more than 100 µM; with SNB-75 CNS, more than 100 µM; with UACC-257 melanoma it was 76.6 µM.
Turning to `CC(=O)Oc1ccccc1C(=O)NCCC[Se]C#N`, the GI50 was 1.97 µM in the assay on CAKI-1 renal; 1.87 µM with HCT-116 colon; 2.84 µM with KM12 colon; 3.62 µM in the assay with OVCAR-4 ovarian; 1.88 µM in the assay on SNB-75 CNS. The TGI worked out at 3.94 µM in the assay on CAKI-1 renal; 5.03 µM in the assay on HCT-116 colon; 16.7 µM with KM12 colon; 25.7 µM with OVCAR-4 ovarian; 4.92 µM in the assay on SNB-75 CNS.
On to `Nc1cc(N)cc(Cc2ccccc2)c1`, for which the TGI in the assay with CAKI-1 renal, in the assay with HCT-116 colon, with KM12 colon, with MDA-MB-231 breast, in the assay on OVCAR-4 ovarian and in the assay with UACC-257 melanoma was more than 100 µM each time.
As to `CCCCCCCC(=O)NS(=O)(=O)c1ccccc1`, the TGI in the assay on CAKI-1 renal, in the assay with HCT-116 colon, in the assay on KM12 colon, in the assay on MDA-MB-231 breast, in the assay on OVCAR-4 ovarian and in the assay with SNB-75 CNS was more than 100 µM throughout. This compound also came in with a TGI with UACC-62 melanoma of more than 100 µM.
For `Clc1ccc(-c2nc(C(Cl)Cl)nc3cc(-c4ccccc4)nn23)cc1`, the GI50 in the assay with HCT-116 colon is 1.67 µM; with KM12 colon, 0.884 µM; in the assay on MDA-MB-231 breast, 1.8 µM; in the assay with OVCAR-4 ovarian, 0.917 µM; in the assay with SNB-75 CNS, 0.957 µM. The TGI in the assay on HCT-116 colon was more than 50 µM; in the assay with KM12 colon it was 2.89 µM; in the assay with MDA-MB-231 breast, more than 50 µM; with OVCAR-4 ovarian, 3.63 µM; in the assay with SNB-75 CNS, more than 50 µM.
